Several values for one entry are separate records, joined by “and”; a condition that tells them apart may be missing. Identical values can stand only once.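 Five concentrations, 48 hours, 96-well plates. GI50 is the concentration that inhibits growth by half.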 Activity calls are given as the source filed them. Cut-off read from the data, not from the text of the source: active = GI50 up to about 1.1 µM and inactive = higher.
Experiments:
Experiment in all cases: growth of human tumour cells (NCI), 48 h
[1] = test system: HOP-62
[2] = test system: CAKI-1
[3] = test system: KM12
[4] = test system: SNB-19
[5] = test system: 786-0
[6] = test system: HOP-92
[7] = test system: NCI-H226
[8] = test system: OVCAR-3
[9] = test system: SN12C
[10] = test system: MDA-MB-435
[11] = test system: RPMI-8226
[12] = test system: OVCAR-8
[13] = test system: DU-145
[14] = test system: Hs-578T
[15] = test system: Malme-3M
[16] = test system: T47D
[17] = test system: UO-31
[18] = test system: NCI-H460
[19] = test system: TK-10
[20] = test system: HCC 2998

| SMILES | GI50 [1] | GI50 [2] | GI50 [3] | GI50 [4] | GI50 [5] | GI50 [6] | GI50 [7] | GI50 [8] | GI50 [9] | GI50 [10] | GI50 [11] | GI50 [12] | GI50 [13] | GI50 [14] | GI50 [15] | GI50 [16] | GI50 [17] | GI50 [18] | GI50 [19] | GI50 [20] |
| --- | --- | --- | --- | --- | --- | --- | --- | --- | --- | --- | --- | --- | --- | --- | --- | --- | --- | --- | --- | --- |
| ON(CCc1ccncc1)Cc1ccccc1 | > 100 µM (inactive) | > 100 µM (inactive) | > 100 µM (inactive) | > 100 µM (inactive) | > 100 µM (inactive) | > 100 µM (inactive) | > 100 µM (inactive) | > 100 µM (inactive) | > 100 µM (inactive) | > 100 µM (inactive) | > 100 µM (inactive) | > 100 µM (inactive) | > 100 µM (inactive) | > 100 µM (inactive) | > 100 µM (inactive) | > 100 µM (inactive) | > 100 µM (inactive) |  |  |  |
| O=C1Nc2ccc(Br)cc2/C1=N/Nc1ccccc1[N+](=O)[O-] | 11.4 µM (inactive) | 14.2 µM (inactive) | 8.2 µM (inactive) | 28.6 µM (inactive) | 24.6 µM (inactive) |  | 13.6 µM (inactive) | 10.7 µM (inactive) | 18.8 µM (inactive) | 21.1 µM (inactive) | 16.4 µM (inactive) | 17.2 µM (inactive) | 12.2 µM (inactive) | 16.1 µM (inactive) | 13.6 µM (inactive) | 29.9 µM (inactive) | 16.9 µM (inactive) | 9.73 µM (inactive) | 10.3 µM (inactive) | 13 µM (inactive) |
| Nc1nc(N)c(CCCCc2ccc([N+](=O)[O-])cc2)c(N)n1 | > 100 µM (inactive) | > 96.6 µM (inactive) | 36.3 µM (inactive) | > 100 µM (inactive) | 8.67 µM (inactive) | 99.5 µM (inactive) | > 100 µM (inactive) | > 100 µM (inactive) | > 79.4 µM (inactive) |  | > 25.9 µM (inactive) | 22.3 µM (inactive) | 76 µM (inactive) | > 100 µM (inactive) | 41.9 µM (inactive) | > 100 µM (inactive) | > 100 µM (inactive) | 5.68 µM (inactive) | > 100 µM (inactive) | 38.1 µM (inactive) |
| C=C(C)C1CC[C@@](C)(O)[C@H](C#N)C1 (some centres undefined) | > 100 µM (inactive) | > 100 µM (inactive) | > 100 µM (inactive) | > 100 µM (inactive) | > 100 µM (inactive) |  | > 100 µM (inactive) | > 100 µM (inactive) | > 100 µM (inactive) | > 100 µM (inactive) | > 100 µM (inactive) | > 100 µM (inactive) | > 100 µM (inactive) | > 100 µM (inactive) | > 100 µM (inactive) | > 100 µM (inactive) | > 100 µM (inactive) | > 100 µM (inactive) | > 100 µM (inactive) | > 100 µM (inactive) |
| CN(C)C12C=CC=CC3=C(c4ccccc4)C(c4ccccc4)=C(c4ccccc4)C31c1ccccc1C2 (centres undefined) | > 100 µM (inactive) |  | > 100 µM (inactive) | > 100 µM (inactive) | > 100 µM (inactive) |  |  |  | > 100 µM (inactive) | > 100 µM (inactive) | > 100 µM (inactive) | > 100 µM (inactive) |  | > 100 µM (inactive) |  | > 100 µM (inactive) | > 100 µM (inactive) | > 100 µM (inactive) | > 100 µM (inactive) | > 100 µM (inactive) |
| COc1ccc(/N=C2\C(=N/c3ccc(OC)cc3)N(c3ccc(N(C)C)cc3)C(=S)N2c2ccc(OC)cc2)cc1 | > 64.6 µM (inactive) |  | > 100 µM (inactive) | > 100 µM (inactive) | 0.767 µM (active) | > 100 µM (inactive) | > 100 µM (inactive) | > 100 µM (inactive) | > 100 µM (inactive) | > 100 µM (inactive) | 0.0532 µM (active) | > 37.2 µM (inactive) | > 100 µM (inactive) |  | > 100 µM (inactive) | > 100 µM (inactive) | 3.81 µM (inactive) | 10.9 µM (inactive) | > 100 µM (inactive) | > 100 µM (inactive) |
| Cc1ccc(NCc2nnc3c(-c4ccccc4)nc4ccccc4n23)cc1 | 46.1 µM (inactive) | 30.1 µM (inactive) | 22.8 µM (inactive) | 38 µM (inactive) | 27.9 µM (inactive) | 16 µM (inactive) | 44 µM (inactive) | 49.7 µM (inactive) | 32.6 µM (inactive) | 29.6 µM (inactive) |  | 24 µM (inactive) | 25.2 µM (inactive) | 50.7 µM (inactive) | 37.2 µM (inactive) | 3.36 µM (inactive) |  | 28.8 µM (inactive) | 43.9 µM (inactive) | 44.6 µM (inactive) |
| CCc1cn2c(/C=N/N=C(N)N)c(-c3cc(C)c(Cl)cc3Cl)nc2s1 |  | 1.27 µM (inactive) | 1.58 µM (inactive) | 1.54 µM (inactive) | 0.847 µM (active) | 1.64 µM (inactive) | 1.26 µM (inactive) | 1.48 µM (inactive) |  | 1.41 µM (inactive) | 1.24 µM (inactive) | 1.58 µM (inactive) | 1.64 µM (inactive) | 1.71 µM (inactive) | 1.37 µM (inactive) | 1.4 µM (inactive) | 1.64 µM (inactive) | 1.86 µM (inactive) | 1.97 µM (inactive) |  |
| COc1ccc(OC)c(/C=C/[N+](=O)[O-])c1 | 4.93 µM (inactive) and 2.78 µM (inactive) | 2.85 µM (inactive) and 2.45 µM (inactive) |  | 3.44 µM (inactive) and 4.23 µM (inactive) | 1.79 µM (inactive) and 1.57 µM (inactive) | 4.35 µM (inactive) and 3.05 µM (inactive) |  | 2.14 µM (inactive) and 1.75 µM (inactive) | 2.44 µM (inactive) and 3.77 µM (inactive) | 2.37 µM (inactive) | 1.39 µM (inactive) and 845 nM (active) | 5.6 µM (inactive) and 4.23 µM (inactive) | 3.33 µM (inactive) and 3.03 µM (inactive) | 4 µM (inactive) |  | 3.01 µM (inactive) | 1.74 µM (inactive) and 2.77 µM (inactive) | 3.24 µM (inactive) and 5.48 µM (inactive) |  |  |
| Cn1c(C(O)C2(c3cccnc3)SCCCS2)cc2ccccc21 (centres undefined) | > 100 µM (inactive) | > 100 µM (inactive) | 71.4 µM (inactive) | > 100 µM (inactive) | > 100 µM (inactive) | > 100 µM (inactive) | > 100 µM (inactive) | 36.6 µM (inactive) | > 100 µM (inactive) | 90.2 µM (inactive) | 38.5 µM (inactive) | > 100 µM (inactive) | > 100 µM (inactive) |  | > 100 µM (inactive) | 51.1 µM (inactive) | 37.2 µM (inactive) | 99.3 µM (inactive) | > 100 µM (inactive) | > 100 µM (inactive) |
| C=CCc1c(C)nc(C)nc1N/N=C/C=C/c1ccccc1 | 16.5 µM (inactive) | 58.6 µM (inactive) |  | 31.8 µM (inactive) | 65.2 µM (inactive) | 40.5 µM (inactive) | > 100 µM (inactive) | 19.4 µM (inactive) | 48 µM (inactive) | 23.6 µM (inactive) | 21.9 µM (inactive) | 32.2 µM (inactive) |  | 48.9 µM (inactive) | 70 µM (inactive) | 3.73 µM (inactive) | 39.7 µM (inactive) | 22.4 µM (inactive) | 33 µM (inactive) |  |
| COc1ccc(CNC2=N/C(=C\c3ccccc3Cl)C(=O)N2C)cc1 | 47.8 µM (inactive) | 30.7 µM (inactive) | 20.4 µM (inactive) | 38.6 µM (inactive) | 19.7 µM (inactive) | 23.1 µM (inactive) | 49.2 µM (inactive) | 22.8 µM (inactive) | 19.6 µM (inactive) | 19 µM (inactive) |  | 27.1 µM (inactive) | 27.7 µM (inactive) | 57.4 µM (inactive) | 33 µM (inactive) | 14.2 µM (inactive) |  | 30.1 µM (inactive) | 37.7 µM (inactive) | 21.8 µM (inactive) |
| Oc1ccccc1/C=N/c1ccc(-c2nc3ccccc3[nH]2)cc1 | > 100 µM (inactive) | > 100 µM (inactive) | 43.3 µM (inactive) | > 100 µM (inactive) | > 100 µM (inactive) | 22.9 µM (inactive) | > 100 µM (inactive) | > 100 µM (inactive) | 79.1 µM (inactive) | 67.6 µM (inactive) | 26.6 µM (inactive) | 47.1 µM (inactive) | 65.8 µM (inactive) | > 100 µM (inactive) | 93.3 µM (inactive) | 10.4 µM (inactive) | 63.1 µM (inactive) | 54.8 µM (inactive) | > 100 µM (inactive) |  |
| COc1c(O)cc(/C=C/c2cc(O)cc3c2[C@@]2(C(=O)O3)c3c(O)cc(O)cc3OC2c2cccc(O)c2)cc1O (some centres undefined) | > 100 µM (inactive) | 98.4 µM (inactive) | 39.1 µM (inactive) | 39.3 µM (inactive) | 68.7 µM (inactive) | > 100 µM (inactive) |  | 54 µM (inactive) | 19.2 µM (inactive) | 54.3 µM (inactive) | 14.7 µM (inactive) | 23.7 µM (inactive) | 72.1 µM (inactive) | 72.8 µM (inactive) | > 100 µM (inactive) | 65.9 µM (inactive) | 26.1 µM (inactive) | 11.3 µM (inactive) | 95.9 µM (inactive) |  |
| Cc1[nH]n(C2=NCCN2)c(=O)c1C | > 100 µM (inactive) | > 100 µM (inactive) | > 100 µM (inactive) | > 100 µM (inactive) | > 100 µM (inactive) | > 100 µM (inactive) | > 100 µM (inactive) | > 100 µM (inactive) |  | > 100 µM (inactive) | > 100 µM (inactive) | > 100 µM (inactive) |  | > 100 µM (inactive) | > 100 µM (inactive) | > 100 µM (inactive) | > 100 µM (inactive) | > 100 µM (inactive) | > 100 µM (inactive) |  |
